Experimental data published in the supplement of paper PMC4862054.

System: HCC1599
Assay: normalised viability (% of control), CellTiter-Blue; higher = more viable cells (about 100 = DMSO control)
Details: 10000 nM; incubation time: 72 h
Summary of the method: (§1)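 Vehicle (100) and a positive kill control (0) anchored the normalisation of each plate, and Z'-factor was used for quality control. Breast cancer cell lines in 20 µl suspension were incubated 72 h over compound in 5 µl medium in 384-well plates, followed by CellTiter-Blue at 560/590 nm. The value is normalised viability at a single listed concentration of the series.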

| SMILES | normalised viability [%] |
| --- | --- |
| CCc1cncnc1N1CCN(Cc2nc3ccc(C(F)(F)F)cc3[nH]2)CC1 | 90.2 |
| Oc1ncc(N(CCCl)CCCl)c(O)n1 [Uracil mustard] | 92.7 |
| CC1=C(/C=C/C(C)=C/C=C/C(C)=C/C(=O)O)C(C)(C)CCC1 [Tretinoin] | 84.2 |

System: DU-4475
Assay: as above
Details: 0.3 nM; incubation time: 72 h
Summary of the method: as §1

| SMILES | normalised viability [%] |
| --- | --- |
| COc1cc2c(Oc3ccc4[nH]c(C)cc4c3F)ncnc2cc1OCCCN1CCCC1 [Cediranib] | 103 |
| C=CC(=O)N1CCC[C@@H](n2nc(-c3ccc(Oc4ccccc4)cc3)c3c(N)ncnc32)C1 | 91.8 |
| Cc1cnc(NC(=O)Nc2cc(Br)c(C)cc2OC[C@@H]2CNCCO2)cn1 | 116 |

Same assay, conditions: 3 nM; incubation time: 72 h

| SMILES | normalised viability [%] |
| --- | --- |
| Nc1nc(F)nc2c1ncn2[C@@H]1O[C@H](CO)[C@@H](O)[C@@H]1O [Fludarabine] | 91.1 |
| O=C(O)C1(C(=O)O)CCC1.[NH2-].[NH2-].[Pt+2] [Carboplatin] | 99 |
| N#Cc1ccc(C(c2ccc(C#N)cc2)n2cncn2)cc1 [Letrozole] | 94.6 |
| C1CN1c1nc(N2CC2)nc(N2CC2)n1 [Triethylenemelamine] | 102 |
| CCCS(=O)(=O)Nc1ccc(F)c(C(=O)c2c[nH]c3ncc(-c4ccc(Cl)cc4)cc23)c1F [Vemurafenib] | 94.5 |
| O=C(O)C(=O)O.[NH-][C@@H]1CCCC[C@H]1[NH-].[Pt+2] [Oxaliplatin] | 112 |
| Cc1ccc(-c2cc(C(F)(F)F)nn2-c2ccc(S(N)(=O)=O)cc2)cc1 [Celecoxib] | 83.8 |
| NCCCNCCSP(=O)(O)O [Amifostine] | 85.9 |
| COc1cc2c(Oc3ccc4[nH]c(C)cc4c3F)ncnc2cc1OCCCN1CCCC1 [Cediranib] | 80.4 |
| C[C@H]1C[C@@H]2[C@H]([C@@H](O)C[C@@]3(C)[C@H]2CC[C@]3(O)C(=O)CO)[C@@]2(C)C=CC(=O)C=C12 [Methylprednisolone] | 84.7 |
| CCc1cncnc1N1CCN(Cc2nc3ccc(C(F)(F)F)cc3[nH]2)CC1 | 103 |
| C=CC(=O)N1CCC[C@@H](n2nc(-c3ccc(Oc4ccccc4)cc3)c3c(N)ncnc32)C1 | 87.4 |
| Oc1ncc(N(CCCl)CCCl)c(O)n1 [Uracil mustard] | 92 |
| Cc1cnc(NC(=O)Nc2cc(Br)c(C)cc2OC[C@@H]2CNCCO2)cn1 | 94.6 |
| CC1=C(/C=C/C(C)=C/C=C/C(C)=C/C(=O)O)C(C)(C)CCC1 [Tretinoin] | 78.4 |

Same assay, conditions: 10 nM; incubation time: 72 h

| SMILES | normalised viability [%] |
| --- | --- |
| COc1cc2c(Oc3ccc4[nH]c(C)cc4c3F)ncnc2cc1OCCCN1CCCC1 [Cediranib] | 87.3 |
| C=CC(=O)N1CCC[C@@H](n2nc(-c3ccc(Oc4ccccc4)cc3)c3c(N)ncnc32)C1 | 86.8 |
| Cc1cnc(NC(=O)Nc2cc(Br)c(C)cc2OC[C@@H]2CNCCO2)cn1 | 106 |

Same assay, conditions: 30 nM; incubation time: 72 h

| SMILES | normalised viability [%] |
| --- | --- |
| Nc1nc(F)nc2c1ncn2[C@@H]1O[C@H](CO)[C@@H](O)[C@@H]1O [Fludarabine] | 93.2 |
| O=C(O)C1(C(=O)O)CCC1.[NH2-].[NH2-].[Pt+2] [Carboplatin] | 74.5 |
| N#Cc1ccc(C(c2ccc(C#N)cc2)n2cncn2)cc1 [Letrozole] | 81.4 |
| C1CN1c1nc(N2CC2)nc(N2CC2)n1 [Triethylenemelamine] | 102 |
| CCCS(=O)(=O)Nc1ccc(F)c(C(=O)c2c[nH]c3ncc(-c4ccc(Cl)cc4)cc23)c1F [Vemurafenib] | 85.1 |
| O=C(O)C(=O)O.[NH-][C@@H]1CCCC[C@H]1[NH-].[Pt+2] [Oxaliplatin] | 106 |
| Cc1ccc(-c2cc(C(F)(F)F)nn2-c2ccc(S(N)(=O)=O)cc2)cc1 [Celecoxib] | 93.1 |
| NCCCNCCSP(=O)(O)O [Amifostine] | 93.9 |
| C[C@H]1C[C@@H]2[C@H]([C@@H](O)C[C@@]3(C)[C@H]2CC[C@]3(O)C(=O)CO)[C@@]2(C)C=CC(=O)C=C12 [Methylprednisolone] | 83.5 |
| CCc1cncnc1N1CCN(Cc2nc3ccc(C(F)(F)F)cc3[nH]2)CC1 | 91.6 |
| Oc1ncc(N(CCCl)CCCl)c(O)n1 [Uracil mustard] | 89.5 |
| CC1=C(/C=C/C(C)=C/C=C/C(C)=C/C(=O)O)C(C)(C)CCC1 [Tretinoin] | 93.1 |

Same assay, conditions: 100 nM; incubation time: 72 h

| SMILES | normalised viability [%] |
| --- | --- |
| Nc1nc(F)nc2c1ncn2[C@@H]1O[C@H](CO)[C@@H](O)[C@@H]1O [Fludarabine] | 96.7 |
| O=C(O)C1(C(=O)O)CCC1.[NH2-].[NH2-].[Pt+2] [Carboplatin] | 89.4 |
| N#Cc1ccc(C(c2ccc(C#N)cc2)n2cncn2)cc1 [Letrozole] | 82 |
| C1CN1c1nc(N2CC2)nc(N2CC2)n1 [Triethylenemelamine] | 102 |
| CCCS(=O)(=O)Nc1ccc(F)c(C(=O)c2c[nH]c3ncc(-c4ccc(Cl)cc4)cc23)c1F [Vemurafenib] | 68.2 |
| O=C(O)C(=O)O.[NH-][C@@H]1CCCC[C@H]1[NH-].[Pt+2] [Oxaliplatin] | 100 |
| Cc1ccc(-c2cc(C(F)(F)F)nn2-c2ccc(S(N)(=O)=O)cc2)cc1 [Celecoxib] | 106 |
| NCCCNCCSP(=O)(O)O [Amifostine] | 86.4 |
| C[C@H]1C[C@@H]2[C@H]([C@@H](O)C[C@@]3(C)[C@H]2CC[C@]3(O)C(=O)CO)[C@@]2(C)C=CC(=O)C=C12 [Methylprednisolone] | 86.4 |
| CCc1cncnc1N1CCN(Cc2nc3ccc(C(F)(F)F)cc3[nH]2)CC1 | 107 |
| Oc1ncc(N(CCCl)CCCl)c(O)n1 [Uracil mustard] | 101 |
| CC1=C(/C=C/C(C)=C/C=C/C(C)=C/C(=O)O)C(C)(C)CCC1 [Tretinoin] | 83.7 |

System: MDA-MB-231
Assay: as above
Details: 1 nM; incubation time: 72 h
Summary of the method: as §1

| SMILES | normalised viability [%] |
| --- | --- |
| COc1cc2c(Oc3ccc4[nH]c(C)cc4c3F)ncnc2cc1OCCCN1CCCC1 [Cediranib] | 84.7 |
| C=CC(=O)N1CCC[C@@H](n2nc(-c3ccc(Oc4ccccc4)cc3)c3c(N)ncnc32)C1 | 102 |
| Cc1cnc(NC(=O)Nc2cc(Br)c(C)cc2OC[C@@H]2CNCCO2)cn1 | 106 |

Same assay, conditions: 10 nM; incubation time: 72 h

| SMILES | normalised viability [%] |
| --- | --- |
| Nc1nc(F)nc2c1ncn2[C@@H]1O[C@H](CO)[C@@H](O)[C@@H]1O [Fludarabine] | 90.9 |
| O=C(O)C1(C(=O)O)CCC1.[NH2-].[NH2-].[Pt+2] [Carboplatin] | 85.8 |
| N#Cc1ccc(C(c2ccc(C#N)cc2)n2cncn2)cc1 [Letrozole] | 86.3 |
| C1CN1c1nc(N2CC2)nc(N2CC2)n1 [Triethylenemelamine] | 104 |
